Experimental data published in PubChem BioAssay (NCI).
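96-well plates; 48 h exposure; 5 concentrations. Endpoints by linear interpolation between flanking doses. Not reached: highest tested concentration assigned. At the TGI there is no net growth.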

Experiments:
Assay in all cases: NCI tumour cell line growth inhibition, 48 h
786-0 renal = system: 786-0 renal
A498 renal = system: A498 renal
BT-549 breast = system: BT-549 breast
DU-145 prostate = system: DU-145 prostate
HL-60(TB) leukemia = system: HL-60(TB) leukemia
HS 578T breast = system: HS 578T breast
K-562 leukemia = system: K-562 leukemia
KM12 colon = system: KM12 colon
PC-3 prostate = system: PC-3 prostate
SK-OV-3 ovarian = system: SK-OV-3 ovarian
SNB-19 CNS = system: SNB-19 CNS
SNB-75 CNS = system: SNB-75 CNS
UACC-257 melanoma = system: UACC-257 melanoma
UO-31 renal = system: UO-31 renal

Row | Structure (SMILES) | TGI (786-0 renal) [µM] | TGI (A498 renal) [µM] | TGI (BT-549 breast) [µM] | TGI (DU-145 prostate) [µM] | TGI (HL-60(TB) leukemia) [µM] | TGI (HS 578T breast) [µM] | TGI (K-562 leukemia) [µM] | TGI (KM12 colon) [µM] | TGI (PC-3 prostate) [µM] | TGI (SK-OV-3 ovarian) [µM] | TGI (SNB-19 CNS) [µM] | TGI (SNB-75 CNS) [µM] | TGI (UACC-257 melanoma) [µM] | TGI (UO-31 renal) [µM]
1 | COc1cc2c(c(OC)c1OC)C(=O)[C@@H]1[C@H]2N1C(=O)NCCCl | > 100 | > 100 | > 100 | > 100 | > 100 | > 100 | > 100 | > 100 | > 100 | > 100 | > 100 | > 100 | > 100 | > 100
2 | Cc1c(C)c(C)c(Cn2[nH]c(=O)n(C)c2=O)c(C)c1C | > 100 | > 100 | > 100 | > 100 | > 100 | > 100 | > 100 | > 100 | > 100 | > 100 | > 100 | > 100 | > 100 | > 100
3 | CCCNC(=S)N/N=C(\C)c1ccc(S(=O)(=O)N(C)c2ccccc2)cc1 | > 72.9 | > 100 | > 100 | > 100 | > 100 | 24.4 | > 100 | > 100 | > 100 | 97 | > 87.3 | > 58.4 | > 100 | > 100
4 | Cc1ccc(C2(c3ccc(Cl)cc3)c3ccccc3C3=NCCN32)cc1 (centres undefined) | 26.9 | 20 | 25.9 | 26.1 | 23.9 | 33.4 | > 100 | 22.8 | 21.6 | 20.7 | 28.2 | 24.9 | 20.7 | 18.1
5 | O=C(Cc1ccccc1F)NC1=C(Cl)C(=O)c2ccccc2C1=O | 9.68 | 33.4 | 7.26 | 21.8 | 0.8 | 23.8 | > 41.8 | 4.11 | 11.9 | 13.7 | 25.2 | 8.06 | 4.32 | 8.98
6 | CCCCCCCCCCCC(=O)OC[C@H](C[As](=O)(O)O)OC(=O)CCCCCCCCCCC | 26 | 17.1 | 11.3 | 44.2 | > 28.6 | 8.69 | > 52.5 | 22 | 10.5 | 28.9 | 17.7 | 24.7 | 24.9 | 29.5
